Target: T1, human CD73 (Homo sapiens, UniProt P21589)
T1 sequence (P21589 27-549): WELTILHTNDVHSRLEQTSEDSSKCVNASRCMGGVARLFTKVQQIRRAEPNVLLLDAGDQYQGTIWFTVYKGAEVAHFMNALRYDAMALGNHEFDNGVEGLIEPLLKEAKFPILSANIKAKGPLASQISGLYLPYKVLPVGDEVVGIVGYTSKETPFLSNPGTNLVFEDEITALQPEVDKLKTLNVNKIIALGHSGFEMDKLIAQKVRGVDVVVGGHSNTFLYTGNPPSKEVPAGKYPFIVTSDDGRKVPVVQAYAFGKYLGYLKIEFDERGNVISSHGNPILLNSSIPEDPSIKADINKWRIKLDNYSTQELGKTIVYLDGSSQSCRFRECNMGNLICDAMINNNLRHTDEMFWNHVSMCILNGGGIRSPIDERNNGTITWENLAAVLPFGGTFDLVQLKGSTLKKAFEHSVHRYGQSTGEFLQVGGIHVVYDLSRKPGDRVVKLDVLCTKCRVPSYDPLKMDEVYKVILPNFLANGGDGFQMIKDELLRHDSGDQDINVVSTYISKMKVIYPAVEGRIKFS
Assay: Inhibition of Ecto-5′-nucleotidase (CD73) activity in CHO-CD73 cells, phosphate release from AMP
Type: cell-based
Conditions: CHO-K1 cells stably transfected with human CD73; 25 μM AMP; 50 minutes, 37° C.; read-out: Potency: CD73 IC50

SMILES	IC50 [µM]
Cc1cccc(-n2nccc2-c2cc3c(cc2F)nnn3-c2ccc3cn[nH]c3c2)c1 [Example 393]	0.1 to 1
Fc1cc(-c2ccnn2-c2ccc3[nH]ncc3c2)cc2c1nnn2-c1ccc2cn[nH]c2c1 [Example 394]	> 1
Cc1ccc(C(C)n2nccc2-c2cc(F)c3nnn(-c4ccc5cn[nH]c5c4)c3c2)nc1 (centres unmarked) [Example 396]	0.1 to 1
Cc1ccc(Cn2nccc2-c2cc3c(cc2F)nnn3-c2ccc3cn[nH]c3c2)[n+]([O-])c1 [Example 397]	0.1 to 1
Cc1cc2nnn(-c3ccc4cn[nH]c4c3)c2cc1-c1ccnn1C(C)c1ccc(C#N)cc1 (centres unmarked) [Example 398]	> 1
Cc1cc2nnn(-c3ccc4cn[nH]c4c3)c2cc1-c1ccnn1C(C)c1ccc(Cl)cn1 (centres unmarked) [Example 399]	> 1
N#Cc1ccc(Cn2nccc2-c2cc3c(cc2Cl)nnn3-c2ccc3cn[nH]c3c2)c(F)c1 [Example 400]	< 0.1
CC(c1ccc(C#N)cc1)n1nccc1-c1cc2c(cc1Cl)nnn2-c1ccc2cn[nH]c2c1 (centres unmarked) [Example 401]	0.1 to 1
CC(c1ccc(Cl)cn1)n1nccc1-c1cc2c(cc1Cl)nnn2-c1ccc2cn[nH]c2c1 (centres unmarked) [Example 402]	0.1 to 1
N#Cc1cccc(-n2nccc2-c2cc3c(cc2Cl)nnn3-c2ccc3cn[nH]c3c2)c1 [Example 403]	> 1
Clc1cccc(-n2nccc2-c2cc3c(cc2Cl)nnn3-c2ccc3cn[nH]c3c2)c1 [Example 404]	0.1 to 1
Cc1nn(-c2ccc3cn[nH]c3c2)c2cc(-c3ccnn3Cc3ccc(C#N)cc3)ncc12 [Example 405]	0.1 to 1
Cc1cccc(-n2nccc2-c2cc3c(cc2C)nnn3-c2ccc3cn[nH]c3c2)c1 [Example 406]	> 1
Cc1cccc(-n2nccc2-c2cnc3c(C)nn(-c4ccc5cn[nH]c5c4)c3c2)c1 [Example 408]	0.1 to 1
Cc1ccc(F)c(-n2nccc2-c2cc3c(cn2)nnn3-c2ccc3cn[nH]c3c2)c1 [Example 409]	> 1
N#Cc1ccc(Cn2nccc2-c2cc(F)c3nnn(-c4ccc5cn[nH]c5c4F)c3c2)cc1 [Example 410]	0.1 to 1
Cc1cccc(-n2nccc2-c2cc3c(cc2Cl)nnn3-c2ccc3cn[nH]c3c2)c1 [Example 411]	0.1 to 1
CC(c1ccc(C#N)cc1F)n1nccc1-c1cc2c(cc1F)nnn2-c1ccc2cn[nH]c2c1 (centres unmarked) [Example 412]	0.1 to 1
Cc1cccc(-n2ncc(Cl)c2-c2cc(F)c3nnn(-c4ccc5cn[nH]c5c4)c3c2)c1 [Example 413]	0.1 to 1
Cc1cccc(-n2ncc(C)c2-c2cc(F)c3nnn(-c4ccc5cn[nH]c5c4)c3c2)c1 [Example 416]	> 1
C=CCNc1nn(-c2ccc3cn[nH]c3c2)c2cc(-c3ccnn3Cc3ccc(C#N)cc3)cnc12 [Example 417]	> 1
CC(c1ccc(C#N)cc1F)n1nccc1-c1cc(Cl)c2nnn(-c3ccc4[nH]c(=O)[nH]c4c3)c2c1 (centres unmarked) [Example 418]	0.1 to 1
N#Cc1ccc(C(CO)n2nccc2-c2cc(F)c3nnn(-c4ccc5cn[nH]c5c4)c3c2)cc1 (centres unmarked) [Example 419]	0.1 to 1
N#Cc1ccc(Cn2nccc2-c2cnc3c(NCCO)nn(-c4ccc5cn[nH]c5c4)c3c2)cc1 [Example 420]	> 1
N#Cc1ccc(Cn2nccc2-c2cc3c(cc2CO)nnn3-c2ccc3cn[nH]c3c2)cc1 [Example 421]	0.1 to 1
N#Cc1ccc(Cn2nccc2-c2cnc3c(NCC(O)CO)nn(-c4ccc5cn[nH]c5c4)c3c2)cc1 (centres unmarked) [Example 422]	> 1
CNc1nn(-c2ccc3cn[nH]c3c2)c2cc(-c3ccnn3Cc3ccc(C#N)cc3)cnc12 [Example 423]	> 1
CN(C)S(=O)(=O)Nc1nn(-c2ccc3cn[nH]c3c2)c2cc(-c3ccnn3Cc3ccc(C#N)cc3)cnc12 [Example 424]	> 1
CCNc1nn(-c2ccc3cn[nH]c3c2)c2cc(-c3ccnn3Cc3ccc(C#N)cc3)cnc12 [Example 425]	> 1

— patent publication US11931343B2 (ARCUS BIOSCIENCES, INC., priority 2018, dated 2024)
